For series [1], the target named is Leukocyte tyrosine kinase receptor (Homo sapiens) (UniProt P29376). The note with it: Compound concentration 1000.0 nM.
Series [2] has as its system Epidermal growth factor receptor (Homo sapiens), P00533 [UNDEFINED MUTATION]. The note with it: Compound concentration 1000.0 nM.
Series [3] has as its target 5-hydroxytryptamine receptor 2C (Homo sapiens) (UniProt P28335). As to conditions: Compound concentration 10.0 uM; call rule not given here.
Series [4] has as its target RAC-beta serine/threonine-protein kinase (Homo sapiens) (UniProt P31751). The note with it: Compound concentration 1000.0 nM.
Series [5] deals with T1, Alpha-1D adrenergic receptor (Homo sapiens) (UniProt P25100).
T1 sequence (whole entry): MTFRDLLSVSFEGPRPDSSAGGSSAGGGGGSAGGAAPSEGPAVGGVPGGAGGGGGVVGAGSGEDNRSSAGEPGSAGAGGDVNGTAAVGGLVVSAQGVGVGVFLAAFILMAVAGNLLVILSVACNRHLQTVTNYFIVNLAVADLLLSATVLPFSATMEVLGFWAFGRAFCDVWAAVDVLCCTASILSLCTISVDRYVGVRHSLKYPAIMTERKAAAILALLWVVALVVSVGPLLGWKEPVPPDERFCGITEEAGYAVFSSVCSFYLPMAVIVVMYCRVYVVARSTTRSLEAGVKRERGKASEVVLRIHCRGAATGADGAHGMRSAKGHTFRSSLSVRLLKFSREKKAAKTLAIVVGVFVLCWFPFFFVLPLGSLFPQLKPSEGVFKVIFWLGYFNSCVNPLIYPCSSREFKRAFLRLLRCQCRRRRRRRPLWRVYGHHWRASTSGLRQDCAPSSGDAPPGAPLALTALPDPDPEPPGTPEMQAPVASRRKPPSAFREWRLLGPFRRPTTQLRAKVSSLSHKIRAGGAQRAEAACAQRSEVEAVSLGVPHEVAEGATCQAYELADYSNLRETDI
The series can be described thus: ALPHA1D/H Eurofins-Panlabs selectivity data (BI). The note with it: Compound concentration 10.0 uM.

Series [6] has as its target Adenosine receptor A2a (Homo sapiens) (UniProt P29274). Briefly: A2A/HU Eurofins-Panlabs selectivity data (BI). As to conditions: Compound concentration 10.0 uM.
Series [7] has as its target Sodium-dependent serotonin transporter (Homo sapiens) (UniProt P31645). The series can be described thus: 5HTTRANS/HU Eurofins-Panlabs selectivity data (BI). The note with it: Compound concentration 10.0 uM.
Series [8] concerns the target Acetylcholine receptor subunit alpha (Homo sapiens) (UniProt P02708). The series can be described thus: NACH/H Eurofins-Panlabs selectivity data (BI). The note with it: Compound concentration 10.0 uM.
The target of series [9] is Androgen receptor (Rattus norvegicus) (UniProt P15207). The series can be described thus: TESTOST/RA Eurofins-Panlabs selectivity data (BI). As to conditions: Compound concentration 10.0 uM.
The target of series [10] is Glutamate NMDA receptor (Rattus norvegicus) (UniProt P35439+Q00959+Q00960+Q00961+Q62645+Q8VHN2+Q9R1M7). Briefly: NMDAAGSI/RA Eurofins-Panlabs selectivity data (BI). It counts as protein-complex assay. The note with it: filed as agonist, Compound concentration 10.0 uM.
For series [11], the target named is Prostaglandin E2 receptor EP4 subtype (Homo sapiens) (UniProt P35408). The series can be described thus: PEP4_HU Eurofins-Panlabs selectivity data (BI). As to conditions: Compound concentration 10.0 uM.
Series [12] concerns the target Glutamate receptor ionotropic, NMDA 1 (Rattus norvegicus) (UniProt P35439). Briefly: NMDAGLSI/RA Eurofins-Panlabs selectivity data (BI). As to conditions: Compound concentration 10.0 uM.
Series [13] has as its target Muscarinic acetylcholine receptor M3 (Homo sapiens) (UniProt P20309). The note with it: Compound concentration 10.0 uM.
For series [14], the target named is Sodium-dependent dopamine transporter (Homo sapiens) (UniProt Q01959). Briefly: DATRANS/H Eurofins-Panlabs selectivity data (BI). As to conditions: Compound concentration 10.0 uM.
Series [15] addresses P2Y purinoceptor 1 (Rattus norvegicus) (UniProt P49651). The series can be described thus: P2Y/RAT Eurofins-Panlabs selectivity data (BI). As to conditions: Compound concentration 10.0 uM.
The target in the next series is hERG (KCNH2) (Homo sapiens, UniProt Q12809). Briefly: K+/HERG Eurofins-Panlabs selectivity data (BI). As to conditions: compound concentration 10 uM, read-out: % Ctrl.
Chain of hERG (KCNH2) (Q12809 whole entry): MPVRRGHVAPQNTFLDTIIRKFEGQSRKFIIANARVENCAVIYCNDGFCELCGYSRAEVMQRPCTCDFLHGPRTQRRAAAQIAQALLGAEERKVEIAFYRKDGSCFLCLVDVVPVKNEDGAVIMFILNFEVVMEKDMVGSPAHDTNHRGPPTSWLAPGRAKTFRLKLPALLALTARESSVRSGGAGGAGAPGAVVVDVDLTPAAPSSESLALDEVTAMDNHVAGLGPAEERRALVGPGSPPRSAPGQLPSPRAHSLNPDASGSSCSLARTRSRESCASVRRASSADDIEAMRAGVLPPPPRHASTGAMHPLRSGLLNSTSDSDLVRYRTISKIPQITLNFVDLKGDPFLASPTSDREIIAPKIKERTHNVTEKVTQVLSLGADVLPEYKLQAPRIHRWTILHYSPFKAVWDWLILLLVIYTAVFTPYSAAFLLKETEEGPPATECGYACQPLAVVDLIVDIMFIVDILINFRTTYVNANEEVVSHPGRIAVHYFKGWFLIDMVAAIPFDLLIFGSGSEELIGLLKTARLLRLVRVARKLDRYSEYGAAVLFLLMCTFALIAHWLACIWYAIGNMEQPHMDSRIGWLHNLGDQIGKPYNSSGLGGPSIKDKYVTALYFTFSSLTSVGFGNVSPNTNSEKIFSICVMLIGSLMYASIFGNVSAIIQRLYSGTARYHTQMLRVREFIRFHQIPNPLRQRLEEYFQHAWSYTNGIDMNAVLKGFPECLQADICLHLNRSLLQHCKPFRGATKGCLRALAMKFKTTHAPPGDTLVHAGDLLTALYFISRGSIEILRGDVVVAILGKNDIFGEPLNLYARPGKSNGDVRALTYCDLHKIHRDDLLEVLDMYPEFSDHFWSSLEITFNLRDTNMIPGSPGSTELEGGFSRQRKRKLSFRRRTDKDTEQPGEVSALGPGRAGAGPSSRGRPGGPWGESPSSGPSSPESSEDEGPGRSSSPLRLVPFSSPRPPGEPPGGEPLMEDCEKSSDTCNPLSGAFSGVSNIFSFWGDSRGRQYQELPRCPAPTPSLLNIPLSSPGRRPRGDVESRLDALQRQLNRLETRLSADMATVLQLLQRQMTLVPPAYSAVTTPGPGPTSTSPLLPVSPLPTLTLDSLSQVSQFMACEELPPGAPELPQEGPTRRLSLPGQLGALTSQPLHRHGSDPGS
Series [16] has as its target Sodium channel regulatory subunit beta-1 (Rattus norvegicus) (UniProt Q00954). Briefly: NA+/SITE2/RA Eurofins-Panlabs selectivity data (BI). The note with it: Compound concentration 10.0 uM.

Our source for the residual activity, inhibition and activity values is ChEMBL document CHEMBL4507278 (2021).

Chain of Sodium-dependent serotonin transporter (Homo sapiens) (P31645 whole entry, looked up): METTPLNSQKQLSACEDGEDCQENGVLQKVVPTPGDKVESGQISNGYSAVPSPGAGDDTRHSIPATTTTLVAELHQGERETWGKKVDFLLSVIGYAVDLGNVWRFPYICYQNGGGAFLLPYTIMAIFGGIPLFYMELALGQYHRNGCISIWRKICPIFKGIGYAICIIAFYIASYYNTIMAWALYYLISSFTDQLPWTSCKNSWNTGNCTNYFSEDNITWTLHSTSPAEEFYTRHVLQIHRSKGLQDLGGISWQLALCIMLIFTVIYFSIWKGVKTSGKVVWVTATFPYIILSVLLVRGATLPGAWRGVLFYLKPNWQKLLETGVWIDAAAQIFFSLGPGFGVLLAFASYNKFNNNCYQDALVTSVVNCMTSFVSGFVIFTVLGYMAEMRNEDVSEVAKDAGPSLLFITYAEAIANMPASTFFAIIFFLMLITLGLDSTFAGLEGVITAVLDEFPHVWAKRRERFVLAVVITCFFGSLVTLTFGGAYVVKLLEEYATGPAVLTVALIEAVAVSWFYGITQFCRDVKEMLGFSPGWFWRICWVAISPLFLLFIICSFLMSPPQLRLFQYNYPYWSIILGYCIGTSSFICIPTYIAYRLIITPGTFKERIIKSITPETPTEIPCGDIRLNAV
Chain of Sodium channel regulatory subunit beta-1 (Rattus norvegicus) (Q00954 whole entry): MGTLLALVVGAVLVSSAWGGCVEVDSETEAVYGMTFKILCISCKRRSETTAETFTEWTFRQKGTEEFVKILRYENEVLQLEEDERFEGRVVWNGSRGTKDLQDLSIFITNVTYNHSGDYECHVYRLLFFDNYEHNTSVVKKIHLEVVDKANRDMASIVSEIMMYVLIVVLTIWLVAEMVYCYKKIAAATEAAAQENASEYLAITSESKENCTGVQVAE
Chain of Muscarinic acetylcholine receptor M3 (Homo sapiens) (P20309 whole entry, looked up): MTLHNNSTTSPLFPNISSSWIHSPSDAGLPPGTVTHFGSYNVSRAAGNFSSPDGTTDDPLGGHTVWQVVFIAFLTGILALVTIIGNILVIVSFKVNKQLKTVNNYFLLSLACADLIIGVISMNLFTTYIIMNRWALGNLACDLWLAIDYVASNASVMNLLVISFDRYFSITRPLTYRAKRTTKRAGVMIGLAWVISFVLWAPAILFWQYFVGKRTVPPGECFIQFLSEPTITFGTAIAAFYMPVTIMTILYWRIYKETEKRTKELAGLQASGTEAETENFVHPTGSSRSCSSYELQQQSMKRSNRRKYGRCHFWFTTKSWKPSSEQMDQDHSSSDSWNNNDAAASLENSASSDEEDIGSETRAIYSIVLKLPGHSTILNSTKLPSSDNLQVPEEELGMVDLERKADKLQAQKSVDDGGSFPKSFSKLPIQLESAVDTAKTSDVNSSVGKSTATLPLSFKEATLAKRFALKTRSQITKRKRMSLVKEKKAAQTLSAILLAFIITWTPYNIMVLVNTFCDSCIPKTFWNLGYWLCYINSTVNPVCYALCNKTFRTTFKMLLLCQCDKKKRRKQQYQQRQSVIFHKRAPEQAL
Chain of 5-hydroxytryptamine receptor 2C (Homo sapiens) (P28335 whole entry): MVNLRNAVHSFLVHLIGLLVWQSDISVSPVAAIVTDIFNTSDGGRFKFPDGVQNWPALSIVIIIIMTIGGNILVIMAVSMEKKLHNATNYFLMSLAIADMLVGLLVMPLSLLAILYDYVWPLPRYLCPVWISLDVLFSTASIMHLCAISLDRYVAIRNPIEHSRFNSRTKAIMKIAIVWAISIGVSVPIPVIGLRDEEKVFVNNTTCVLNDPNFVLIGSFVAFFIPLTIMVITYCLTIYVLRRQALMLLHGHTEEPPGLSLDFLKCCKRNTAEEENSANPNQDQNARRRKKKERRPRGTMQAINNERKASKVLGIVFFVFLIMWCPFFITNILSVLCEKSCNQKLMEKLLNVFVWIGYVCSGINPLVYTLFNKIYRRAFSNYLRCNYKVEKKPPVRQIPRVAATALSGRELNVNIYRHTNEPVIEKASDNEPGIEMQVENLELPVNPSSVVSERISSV
Chain of Epidermal growth factor receptor (Homo sapiens), P00533 [UNDEFINED MUTATION] (P00533 whole entry, looked up, change not shown): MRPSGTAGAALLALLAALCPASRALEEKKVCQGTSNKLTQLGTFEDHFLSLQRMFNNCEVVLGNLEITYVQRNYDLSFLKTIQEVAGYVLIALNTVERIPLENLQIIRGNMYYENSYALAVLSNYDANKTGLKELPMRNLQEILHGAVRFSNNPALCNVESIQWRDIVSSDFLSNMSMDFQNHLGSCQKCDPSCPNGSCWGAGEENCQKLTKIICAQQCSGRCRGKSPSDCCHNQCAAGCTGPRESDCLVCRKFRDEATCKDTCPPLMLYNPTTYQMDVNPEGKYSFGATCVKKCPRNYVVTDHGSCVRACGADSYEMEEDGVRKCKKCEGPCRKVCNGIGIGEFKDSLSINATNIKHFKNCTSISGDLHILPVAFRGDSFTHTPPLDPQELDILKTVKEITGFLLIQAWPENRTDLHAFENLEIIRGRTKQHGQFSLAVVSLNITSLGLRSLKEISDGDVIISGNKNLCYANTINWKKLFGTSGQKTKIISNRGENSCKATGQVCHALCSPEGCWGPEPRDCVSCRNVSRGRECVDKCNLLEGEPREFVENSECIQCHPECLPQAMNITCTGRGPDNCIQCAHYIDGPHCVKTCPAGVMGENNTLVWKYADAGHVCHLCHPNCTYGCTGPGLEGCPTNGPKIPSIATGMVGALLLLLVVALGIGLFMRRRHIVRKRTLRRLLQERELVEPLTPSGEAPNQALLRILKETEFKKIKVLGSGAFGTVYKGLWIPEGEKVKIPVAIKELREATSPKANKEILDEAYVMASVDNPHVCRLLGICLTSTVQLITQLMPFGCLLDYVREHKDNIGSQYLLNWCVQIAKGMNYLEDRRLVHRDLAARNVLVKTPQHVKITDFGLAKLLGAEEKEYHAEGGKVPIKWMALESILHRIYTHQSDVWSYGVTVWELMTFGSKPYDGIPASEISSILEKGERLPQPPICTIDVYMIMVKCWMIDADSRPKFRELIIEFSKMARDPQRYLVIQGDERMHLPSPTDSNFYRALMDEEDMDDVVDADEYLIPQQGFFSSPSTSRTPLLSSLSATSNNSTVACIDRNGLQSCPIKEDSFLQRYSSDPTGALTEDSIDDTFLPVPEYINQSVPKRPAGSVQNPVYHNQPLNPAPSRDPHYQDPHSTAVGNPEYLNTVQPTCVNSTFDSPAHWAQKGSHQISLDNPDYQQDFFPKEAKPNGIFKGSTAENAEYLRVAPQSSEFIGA
Chain of RAC-beta serine/threonine-protein kinase (Homo sapiens) (P31751 whole entry): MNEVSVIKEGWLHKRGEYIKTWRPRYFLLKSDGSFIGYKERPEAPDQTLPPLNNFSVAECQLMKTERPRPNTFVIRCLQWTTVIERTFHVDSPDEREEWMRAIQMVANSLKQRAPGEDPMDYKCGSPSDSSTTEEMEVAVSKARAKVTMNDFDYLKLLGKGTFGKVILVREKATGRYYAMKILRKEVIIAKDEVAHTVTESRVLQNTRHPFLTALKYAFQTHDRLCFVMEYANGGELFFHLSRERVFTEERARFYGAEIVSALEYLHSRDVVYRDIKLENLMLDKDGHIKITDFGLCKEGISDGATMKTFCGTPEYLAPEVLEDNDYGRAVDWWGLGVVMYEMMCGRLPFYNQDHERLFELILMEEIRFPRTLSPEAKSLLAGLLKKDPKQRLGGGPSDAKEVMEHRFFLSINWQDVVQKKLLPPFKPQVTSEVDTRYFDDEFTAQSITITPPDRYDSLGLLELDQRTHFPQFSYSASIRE

For `CS(=O)(=O)NCC[C@H](NC(=O)c1cncc2c1cnn2-c1ccc(F)cc1)c1ccnc(S(C)(=O)=O)c1` [BI 9307], the residual activity in series [1] is 100%; in series [2], 71%; in [4] it was 100%. In addition, in series [3], the inhibition was -0.86%.

Consider `CS(=O)(=O)c1cc(C2(NC(=O)c3cncc4c3cnn4-c3ccc(F)cc3)CC2)ccn1` [BI 639667], for which the residual activity is 82% in [5]; 31% in series [6]; 100% in [7]; 91% in series [8]; 91% in [9]; 86% in series [10]. Also, the residual activity in series [11] is 97%; in series [12], 96%; in series [14], 28%; in [15], 88%; in [16], 81%. Further, the inhibition in [13] is 22%. The activity at 10 µM on hERG (KCNH2) is 104% (not active).
